Assay: Flux of active ingredient from transdermal therapeutic system in modified Franz diffusion cell
Format: in vitro ADME, human
Conditions: for Cumulative amount of active ingredient after 3 days: human epidermis, 32° C.
Experimental: The measurements were carried out as follows: a modified Franz diffusion cell and, in each case, a transdermal therapeutic system with an effective diffusion area of 4.1 cm^2 was used. The test temperature was 32° C. The flux of active ingredient was measured on an epidermis from human skin. The acceptor used was an aqueous solution of 0.1% hydroxypropyl-β-cyclodextrin+0.1% NaN3; the acceptor volume was 9 ml (volume exchange after 32, 48, 56 and 72 hours).

Row | SMILES | Cumulative amount of active ingredient after 3 days (TTS formula: Progestogen (Org 30659) 5.0 % by weight, Durotak 2287 90.0 %, propylene glycol monocaprylate 5.0 %) | Cumulative amount of active ingredient after 3 days (TTS formula: Progestogen (Org 30659) 5.0 % by weight, Durotak 2287 95.0 %, no penetration promoter) | Cumulative amount of active ingredient after 3 days (TTS formula: Testosterone 2.0 % by weight, Durotak 2287 93.0 %, propylene glycol monocaprylate 5.0 %) | Cumulative amount of active ingredient after 3 days (TTS formula: Testosterone 2.0 % by weight, Durotak 2287 98.0 %, no penetration promoter) | Increase of the flux of active ingredient on use of 5% propylene glycol monocaprylate (TTS with 5% propylene glycol monocaprylate versus TTS without, Examples 1 and 2)
1 | C#C[C@]1(O)C=C[C@H]2[C@@H]3CCC4=CC(=O)CC[C@@H]4[C@H]3C(=C)C[C@@]21C [Progestogen (Org 30659), (17α)-17-hydroxy-11-methylene-19-norpregna-4,15-dien-20-yn-3-one] | 51.3 μg/cm^2 | 44.7 μg/cm^2 | – | – | –
2 | C[C@]12CC[C@H]3[C@@H](CCC4=CC(=O)CC[C@@]43C)[C@@H]1CC[C@@H]2O [Testosterone, testosterone] | – | – | 36.2 μg/cm^2 | 30.2 μg/cm^2 | about 20%
